Series [1] concerns ascites hepatoma Yoshida AH-130 cells inoculated into male Wistar rats. Nature of the series: AH-130 Yoshida hepatoma cancer cachexia rat model. The note with it: for survival / mortality (Kaplan Meier): low dose 0.2 mg/kg/day. The text has this: Use of an ACE inhibitor blocks all activation of both the AT1 and AT2 receptors, therefore inhibiting the beneficial effects of angiotensin II mediated activation of the AT2 receptor.
The ascites hepatoma Yoshida AH-130 cells (10^8) were inoculated into approx. 200 g male Wistar rats. Alternatively animals received saline injection only (sham). The animals were housed in groups of three. The day after inoculation animals were randomized into various groups as described in the methods. […] The primary endpoints of the study included survival and quality of life. Secondary endpoints included body weight and body composition as well as organ weight, which were assessed at the end of the study (or after death).
The ascites hepatoma Yoshida AH-130 cells (10^8) were inoculated into approx. 200 g male Wistar rats. Alternatively animals received saline injection only (sham). The animals were housed in groups of three. The day after inoculation animals were randomized. […] The primary endpoints of the study included survival and quality of life. Secondary endpoints included body weight and body composition as well as organ weight, which were assessed at the end of the study (or after death).

A further series addresses AT1 receptor. The note with it: read-out: Ki for AT1 receptor; cited from earlier work.
[2] abbreviates: 0.2 mg/kg/d, vs placebo, listed as Compound-21.
[3] abbreviates: 0.2 mg/kg/d, vs placebo, listed as compound-21.
The mark [4] stands for this setting: high dose 1.0 mg/kg/d, vs placebo, listed as Compound-21, 1 mg/kg/day.
[5] abbreviates: high dose 1.0 mg/kg/d, vs placebo, listed as compound-21, 1 mg/kg/day.

Bounds are passed on as bounds.

`CCCCOC(=O)NS(=O)(=O)c1sc(CC(C)C)cc1-c1ccc(Cn2ccnc2)cc1` [Compound 21]: in series [1] (setting [2]), the “change in body weight during the experiment” value is given as “significantly reduced loss of body weight”, the “food intake on day 11 after tumor inoculation” value was “significantly increased food intake”, the “heart weight at the end of the study” value is “significantly increased heart weight” and the “spontaneous locomotor activity on day 11 after tumor inoculation” value is on record as “significantly increased activity”. In series [1] (setting [2]), the “weight of brown adipose tissue (BAT) at the end of the study” value is “significantly increased BAT weight”, the “weight of the fast fiber type EDL at the end of the study” value (“weight of the fast fiber type EDL” below) was “significantly increased EDL weight”, the “weight of the mixed fiber type gastrocnemius at the end of the study” value is listed as “significantly increased gastrocnemius weight” and the “weight of the slow fiber type soleus at the end of the study” value (“weight of the slow fiber type soleus” below) is listed as “significantly increased soleus weight”. The “weight of white adipose tissue (WAT) epididymal fat at the end of the study” value in series [1] (setting [2]) is given as “significantly increased WAT weight”. In series [1] (setting [3]), the “change in body weight during the experiment” value is recorded as “attenuated”, the “food intake on day 11 after tumor inoculation” value is reported as “significantly improved”, the “heart weight at the end of the study” value is “improved” and the “spontaneous locomotor activity on day 11 after tumor inoculation” value is recorded as “significantly improved”. For the same compound, in series [1] (setting [3]), the “weight of brown adipose tissue (BAT) at the end of the study” value was “improved”, the “weight of the fast fiber type EDL” value is listed as “higher compared to placebo”, the “weight of the mixed fiber type gastrocnemius at the end of the study” value is reported as “higher compared to placebo” and the “weight of the slow fiber type soleus” value is reported as “higher compared to placebo”. In addition, the “weight of white adipose tissue (WAT) epididymal fat at the end of the study” value in series [1] (setting [3]) is given as “improved”. In series [1] (setting [4]), the “weight of the fast fiber type EDL” value is given as “also improved EDL weight” and the “weight of the slow fiber type soleus” value is reported as “also improved soleus weight”. Further, in series [1] (setting [5]), the “weight of the fast fiber type EDL” value is on record as “also improved” and the “weight of the slow fiber type soleus” value is “also improved”. The “toxicity at higher dose” value in series [1] (higher dose 1.0 mg/kg/d) is given as “toxic effects”. Also, the “survival (Kaplan Meier)” value in series [1] (higher dose 1.0 mg/kg/d, vs placebo) is “not effective”. The “survival / mortality (Kaplan Meier)” value in series [1] (vs placebo, listed as Compound-21, 0.2 mg/kg/day) was “significantly reduced mortality”. Moreover, the “survival / mortality (Kaplan Meier)” value in series [1] (vs placebo, listed as compound-21, 0.2 mg/kg/day) is on record as “significantly improved survival”. The Ki (as a rule, a dissociation constant, usually derived from enzyme kinetics or from competition with a known ligand) on AT1 receptor is greater than 10 µM.
As for `CCOC(=O)[C@H](CCc1ccccc1)N[C@@H](C)C(=O)N1C(=O)N(C)C[C@H]1C(=O)O` [imidapril, reference compound], in series [1] (imidapril), the “quality of life (activity and food intake)” value is given as “did not improve quality of life”. In addition, the “hazard ratio and survival” value in series [1] (imidapril, compared to untreated tumor-bearing animals) was “worse hazard ratio and survival”. In series [1] (imidapril, vs untreated tumor-bearing animals), the body weight loss entry is listed as “dose-dependent reduction of body weight loss”.
